Laboratory results as given in patent US9957246B2, “Prodrugs of tetrahydrocannabinol, compositions comprising prodrugs of tetrahydrocannabinol and methods of using the same” (Zynerba Pharmaceuticals, Inc., priority 2007, dated 2018).
Where a name gives a salt, the structure may show the parent alone.

Tests used:
[1] = In vitro human skin permeation, flow-through diffusion cells
[2] = Plasma stability of prodrugs (bioconversion to parent drug); type: in vitro ADME
Protocol: Approximately 1 mg/mL of stock solution of each prodrug was prepared in 100 μL of ethanol and 900 μL of acetonitrile. Next, 10 μL of stock was spiked into 1 mL of plasma and vortexed. The samples were kept sealed in an amber vial and samples were obtained to analyze for bioconversion to parent drug.
An approximated 1 mg/mL stock solution of each prodrug was prepared in 100 μL of ethanol and 900 μL of acetonitrile. Next, 10 μL of stock was spiked into 1 mL of plasma and vortexed. The samples were kept sealed in an amber vial and samples were obtained to analyze for bioconversion to parent drug.
Approximately 1 mg/mL of stock solution of each prodrug was prepared in 100 μL of ethanol and 900 μL of acetonitrile. Ten μL of stock was spiked into 1 mL of plasma and vortexed. The samples were kept sealed in an amber vial and samples were obtained to analyze for bioconversion to parent drug.

[3] = Table 19, 90:8:2 PG:H2O:IPM donor solution, analyte: THC or intact prodrug as applied
[4] = Table 9, 2.36:1.18:1 pH = 5.5 PG:ethanol:H2O donor solution, analyte: THC or intact prodrug as applied
[5] = Table 18, 90:8:2 PG:H2O:IPM donor solution, analyte: THC or intact prodrug as applied
[6] = Table 3, 1:1:1 PG:ethanol:H2O donor solution
[7] = Table 5, 1:1:1 PG:ethanol:H2O donor solution and higher flow rate
[8] = Table 6, 1:1:1 PG:ethanol:H2O donor solution, receiver fluid 25% aqueous ethanol
[9] = Table 6, 1:1:1 PG:ethanol:H2O donor solution, receiver fluid 40% aqueous PEG 400
[10] = Table 7, 2.36:1.18:1 PG:ethanol:H2O donor solution, analyte: THC or intact prodrug as applied
[11] = Table 8, gel formulation, analyte: THC or intact prodrug as applied
[12] = Table 10, 2.36:1.18:1 pH = 5.5 PG:ethanol:H2O donor solution, analyte: THC or intact prodrug as applied
[13] = Table 13, gel formulation with 40% aqueous PEG 400 receiver fluid, analyte: THC or intact prodrug as applied
[14] = Table 17, 90:8:2 PG:H2O:IPM donor solution, analyte: THC or intact prodrug as applied
[15] = Table 20, 90:8:2 PG:H2O:IPM donor solution (saturated), analyte: THC or intact prodrug as applied

SMILES: CCCCCc1cc(OC(=O)[C@H](O)CO)c2c(c1)OC(C)(C)[C@@H]1CCC(C)=C[C@@H]21 [ALL00144, THC (R)-2,3-dihydroxypropanoate]
- 24 h cumulative amt [1, 3]: 137.9 ± 55.2 nmol
- 24 h skin conc [1, 3]: 65.5 ± 39.5 µmol/g
- Flux [1, 3]: 8.6 ± 3.4 nmol/cm^2/h
- Lag time [1, 3]: 7.2 ± 0.1 h

SMILES: CCCCCc1cc(OC(=O)C(=O)OCCOCCOCCOCCOC)c2c(c1)OC(C)(C)[C@@H]1CCC(C)=C[C@@H]21 [ALL00122, Δ^9-Tetrahydrocannabinol 3,6,9,12-tetraoxatridecyl oxalate]
- % Prodrug at time (h) ([2]; Table 11, 0.1 h): 0%
- % Prodrug at time (h) ([2]; Table 11, 1 h): 0%
- % Prodrug at time (h) ([2]; Table 11, 22 h): 0%
- % Prodrug at time (h) ([2]; Table 11, 24 h): 0%
- % Prodrug at time (h) ([2]; Table 11, 42 h): 0%
- 24 h skin conc [1, 4]: 52.7 ± 3.2 µmol/g

SMILES: CCCCCc1cc(OC(=O)C(C)(CO)CO)c2c(c1)OC(C)(C)[C@@H]1CCC(C)=C[C@@H]21 [ALL00129, Δ^9-Tetrahydrocannabinol 3-hydroxy-2-(hydroxymethyl)-2-methylpropanoate]
- % Prodrug at time (h) ([2]; Table 15, 0.1 h): 100%
- % Prodrug at time (h) ([2]; Table 15, 1 h): 100%
- % Prodrug at time (h) ([2]; Table 15, 3 h): 98%
- % Prodrug at time (h) ([2]; Table 15, 24 h): 83%
- 24 h cumulative amt [1, 5]: 74.2 ± 8.1 nmol
- 24 h skin conc [1, 5]: 19.6 ± 12.6 µmol/g
- Flux [1, 5]: 4.8 ± 0.7 nmol/cm^2/h
- Lag time [1, 5]: 7.8 ± 1.3 h

SMILES: CCCCCc1cc(OC(=O)C2CCCN2)c2c(c1)OC(C)(C)[C@@H]1CCC(C)=C[C@@H]21 (stereo partly shown) [ALL00125, Δ^9-Tetrahydrocannabinol prolyl ester]
- % Prodrug at time (h) ([2]; Table 11, 0.1 h): 100%
- % Prodrug at time (h) ([2]; Table 11, 2 h): 77%
- % Prodrug at time (h) ([2]; Table 11, 5 h): 55%
- % Prodrug at time (h) ([2]; Table 11, 22 h): 0%
- % Prodrug at time (h) ([2]; Table 11, 24 h): 0%
- % Prodrug at time (h) ([2]; Table 11, 42 h): 0%

SMILES: CCCCCc1cc(O)c2c(c1)OC(C)(C)[C@@H]1CCC(C)=C[C@@H]21 [Δ^9-tetrahydrocannabinol, reference compound]
- 24 h cumulative amt ([1]; Table 2, 100% PG donor solution): 6.91 ± 2.1 nmol
- 24 h skin conc ([1]; Table 2, 100% PG donor solution, analyte: THC or intact prodrug (PD)): 74.8 ± 15.5 µmol/g
- 24 h cumulative amt [1, 6]: 9.0 ± 5.9 nmol
- Flux [1, 6]: 0.93 ± 0.58 nmol/cm^2/h
- Lag time [1, 6]: 13.0 ± 1.8 h
- 24 h skin conc ([1]; Table 3, 1:1:1 PG:ethanol:H2O donor solution, analyte: THC or intact prodrug (PD)): 59.4 ± 30.5 µmol/g
- 24 h cumulative amt ([1]; Table 4, gel formulation): 1.5 ± 0.3 nmol
- Flux ([1]; Table 4, gel formulation): 0.14 ± 0.03 nmol/cm^2/h
- Lag time ([1]; Table 4, gel formulation): 11.2 ± 2.7 h
- 24 h skin conc ([1]; Table 4, gel formulation, analyte: THC or intact prodrug (PD)): 100.4 ± 5.8 µmol/g
- 24 h cumulative amt [1, 7]: 6.0 ± 2.1 nmol
- 24 h skin conc [1, 7]: 133.8 ± 52.3 µmol/g
- Flux [1, 7]: 0.67 ± 0.15 nmol/cm^2/h
- Lag time [1, 7]: 8.9 ± 7.2 h
- 24 h cumulative amt [1, 8]: 9.4 ± 0.2 nmol
- 24 h skin conc [1, 8]: 24.1 ± 5.2 µmol/g
- Flux [1, 8]: 0.70 ± 0.01 nmol/cm^2/h
- Lag time [1, 8]: 6.9 ± 0.2 h
- 24 h cumulative amt [1, 9]: 28.6 ± 3.2 nmol
- 24 h skin conc [1, 9]: 17.4 ± 11.6 µmol/g
- Flux [1, 9]: 1.79 ± 0.39 nmol/cm^2/h
- Lag time [1, 9]: 6.4 ± 1.6 h
- 24 h cumulative amt [1, 10]: 43.1 ± 4.8 nmol
- 24 h skin conc [1, 10]: 75.2 ± 33.1 µmol/g
- Flux [1, 10]: 3.1 ± 0.2 nmol/cm^2/h
- Lag time [1, 10]: 9.0 ± 2.9 h
- 24 h cumulative amt [1, 11]: 10.7 ± 2.1 nmol
- 24 h skin conc [1, 11]: 40.9 ± 14.7 µmol/g
- Flux [1, 11]: 0.62 ± 0.23 nmol/cm^2/h
- Lag time [1, 11]: 5.3 ± 3.3 h
- 24 h cumulative amt [1, 4]: 16.3 ± 7.3 nmol
- 24 h skin conc [1, 4]: 16.1 ± 0.5 µmol/g
- Flux [1, 4]: 1.3 ± 0.5 nmol/cm^2/h
- Lag time [1, 4]: 11.4 ± 0.6 h
- 24 h cumulative amt [1, 12]: 33.6 ± 11.2 nmol
- 24 h skin conc [1, 12]: 7.4 ± 0.6 µmol/g
- Flux [1, 12]: 2.7 ± 1.1 nmol/cm^2/h
- Lag time [1, 12]: 10.8 ± 1.4 h
- 24 h cumulative amt [1, 13]: 3.1 ± 0.8 nmol
- 24 h skin conc [1, 13]: 3.6 ± 1.7 µmol/g
- Flux [1, 13]: 0.17 ± 0.02 nmol/cm^2/h
- Lag time [1, 13]: 4.6 ± 3.2 h
- 24 h cumulative amt [1, 14]: 16.3 ± 0.3 nmol
- 24 h skin conc [1, 14]: 6.1 ± 1.9 µmol/g
- Flux [1, 14]: 1.0 ± 0.3 nmol/cm^2/h
- Lag time [1, 14]: 5.8 ± 5.9 h
- 24 h cumulative amt [1, 5]: 53.3 ± 0.0 nmol
- 24 h skin conc [1, 5]: 17.4 ± 9.2 µmol/g
- Flux [1, 5]: 3.2 ± 0.0 nmol/cm^2/h
- Lag time [1, 5]: 6.2 ± 0.0 h
- 24 h cumulative amt [1, 3]: 29.8 ± 3.3 nmol
- 24 h skin conc [1, 3]: 23.3 ± 1.7 µmol/g
- Flux [1, 3]: 2.0 ± 0.3 nmol/cm^2/h
- Lag time [1, 3]: 8.7 ± 0.3 h
- 24 h cumulative amt [1, 15]: 15.7 ± 4.5 nmol
- 24 h skin conc [1, 15]: 8.5 ± 3.5 µmol/g
- Flux [1, 15]: 1.1 ± 0.3 nmol/cm^2/h
- Lag time [1, 15]: 9.0 ± 0.7 h
